Test results reported in the supplement of paper PMC10307832.

What was measured:
Experiment in all cases: relative viability (nuclei count vs DMSO), 5 days (fraction); higher = more cells survive
NCI-H2347 = system: NCI-H2347
Outline: (§1)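 Values are medians from duplicate plates. Each reflects relative viability, defined as the nuclei count of treated wells over that of vehicle wells. Lung cancer cell lines in 1536-well plates were pin-tool dosed one day after seeding with one drug alone or with a fixed anchor-drug dose plus five library-drug doses (not always all listed) in √10 steps, then fixed, stained and imaged at 4× after 5 days.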

SW 900 = system: SW 900
Outline: as §1

NCI-H460 = system: NCI-H460
Outline: as §1

A-427 = system: A-427
Outline: as §1

SW 1573 = system: SW 1573
Outline: as §1

201T = system: 201T
Outline: as §1

NCI-H1793 = system: NCI-H1793
Outline: as §1

HCC-44 = system: HCC-44
Outline: as §1

LU99A = system: LU99A
Outline: as §1

LC-2-ad = system: LC-2-ad
Outline: as §1

NCI-H1650 = system: NCI-H1650
Outline: as §1

LK-2 = system: LK-2
Outline: as §1

LCLC-103H = system: LCLC-103H
Outline: as §1

NCI-H2228 = system: NCI-H2228
Outline: as §1

H3255 = system: H3255
Outline: as §1

LCLC-97TM1 = system: LCLC-97TM1
Outline: as §1

COR-L23 = system: COR-L23
Outline: as §1

NCI-H23 = system: NCI-H23
Outline: as §1

PC-14 = system: PC-14
Outline: as §1

NCI-H596 = system: NCI-H596
Outline: as §1

NCI-H727 = system: NCI-H727
Outline: as §1

SMILES: COc1cc2nccc(Oc3ccc(NC(=O)Nc4cc(C)on4)c(Cl)c3)c2cc1OC [Tivozanib] + O=C(c1cc(Cc2n[nH]c(=O)c3ccccc23)ccc1F)N1CCN(C(=O)C2CC2)CC1 [Olaparib] (partner 8 µM)
- relative viability (NCI-H2347; first compound 0.005 µM): 0.566
- relative viability (NCI-H2347; first compound 0.01581 µM): 0.65
- relative viability (NCI-H2347; first compound 0.05 µM): 0.608
- relative viability (NCI-H2347; first compound 0.1581 µM): 0.638
- relative viability (NCI-H2347; first compound 0.5 µM): 0.512
- relative viability (SW 900; first compound 0.005 µM): 0.779
- relative viability (SW 900; first compound 0.01581 µM): 0.817
- relative viability (SW 900; first compound 0.05 µM): 0.776
- relative viability (SW 900; first compound 0.5 µM): 0.855
- relative viability (NCI-H460; first compound 0.005 µM): 0.377
- relative viability (NCI-H460; first compound 0.01581 µM): 0.469
- relative viability (NCI-H460; first compound 0.05 µM): 0.496
- relative viability (NCI-H460; first compound 0.1581 µM): 0.393
- relative viability (NCI-H460; first compound 0.5 µM): 0.356
- relative viability (A-427; first compound 0.005 µM): 0.667
- relative viability (A-427; first compound 0.01581 µM): 0.747
- relative viability (A-427; first compound 0.05 µM): 0.774
- relative viability (A-427; first compound 0.1581 µM): 0.709
- relative viability (A-427; first compound 0.5 µM): 0.737
- relative viability (SW 1573; first compound 0.005 µM): 0.443
- relative viability (SW 1573; first compound 0.01581 µM): 0.416
- relative viability (SW 1573; first compound 0.05 µM): 0.434
- relative viability (SW 1573; first compound 0.1581 µM): 0.506
- relative viability (SW 1573; first compound 0.5 µM): 0.446
- relative viability (201T; first compound 0.005 µM): 0.826
- relative viability (201T; first compound 0.01581 µM): 0.853
- relative viability (201T; first compound 0.05 µM): 0.821
- relative viability (201T; first compound 0.1581 µM): 0.875
- relative viability (201T; first compound 0.5 µM): 0.868
- relative viability (NCI-H1793; first compound 0.005 µM): 0.804
- relative viability (NCI-H1793; first compound 0.01581 µM): 0.971
- relative viability (NCI-H1793; first compound 0.05 µM): 1.03
- relative viability (NCI-H1793; first compound 0.5 µM): 0.879
- relative viability (HCC-44; first compound 0.005 µM): 0.967
- relative viability (HCC-44; first compound 0.01581 µM): 0.911
- relative viability (HCC-44; first compound 0.05 µM): 0.998
- relative viability (HCC-44; first compound 0.1581 µM): 0.949
- relative viability (HCC-44; first compound 0.5 µM): 0.999
- relative viability (LU99A; first compound 0.005 µM): 0.275
- relative viability (LU99A; first compound 0.01581 µM): 0.247
- relative viability (LU99A; first compound 0.05 µM): 0.271
- relative viability (LU99A; first compound 0.1581 µM): 0.231
- relative viability (LU99A; first compound 0.5 µM): 0.27
- relative viability (LC-2-ad; first compound 0.005 µM): 0.768
- relative viability (LC-2-ad; first compound 0.01581 µM): 0.793
- relative viability (LC-2-ad; first compound 0.05 µM): 0.787
- relative viability (LC-2-ad; first compound 0.1581 µM): 0.794
- relative viability (LC-2-ad; first compound 0.5 µM): 0.729
- relative viability (NCI-H1650; first compound 0.005 µM): 0.714
- relative viability (NCI-H1650; first compound 0.01581 µM): 0.94
- relative viability (NCI-H1650; first compound 0.05 µM): 0.855
- relative viability (NCI-H1650; first compound 0.1581 µM): 0.837
- relative viability (NCI-H1650; first compound 0.5 µM): 0.863
- relative viability (LK-2; first compound 0.005 µM): 0.67
- relative viability (LK-2; first compound 0.01581 µM): 0.759
- relative viability (LK-2; first compound 0.05 µM): 0.691
- relative viability (LK-2; first compound 0.1581 µM): 0.573
- relative viability (LK-2; first compound 0.5 µM): 0.613
- relative viability (LCLC-103H; first compound 0.005 µM): 0.785
- relative viability (LCLC-103H; first compound 0.01581 µM): 0.783
- relative viability (LCLC-103H; first compound 0.05 µM): 0.734
- relative viability (LCLC-103H; first compound 0.1581 µM): 0.791
- relative viability (LCLC-103H; first compound 0.5 µM): 0.853
- relative viability (NCI-H2228; first compound 0.005 µM): 0.669
- relative viability (NCI-H2228; first compound 0.01581 µM): 0.956
- relative viability (NCI-H2228; first compound 0.05 µM): 0.771
- relative viability (NCI-H2228; first compound 0.1581 µM): 0.644
- relative viability (NCI-H2228; first compound 0.5 µM): 0.723
- relative viability (H3255; first compound 0.005 µM): 0.544
- relative viability (H3255; first compound 0.01581 µM): 0.56
- relative viability (H3255; first compound 0.05 µM): 0.541
- relative viability (H3255; first compound 0.1581 µM): 0.602
- relative viability (H3255; first compound 0.5 µM): 0.513
- relative viability (LCLC-97TM1; first compound 0.005 µM): 0.35
- relative viability (LCLC-97TM1; first compound 0.01581 µM): 0.34
- relative viability (LCLC-97TM1; first compound 0.05 µM): 0.321
- relative viability (LCLC-97TM1; first compound 0.1581 µM): 0.427
- relative viability (LCLC-97TM1; first compound 0.5 µM): 0.436
- relative viability (COR-L23; first compound 0.005 µM): 0.324
- relative viability (COR-L23; first compound 0.01581 µM): 0.326
- relative viability (COR-L23; first compound 0.05 µM): 0.376
- relative viability (COR-L23; first compound 0.1581 µM): 0.363
- relative viability (COR-L23; first compound 0.5 µM): 0.298
- relative viability (NCI-H23; first compound 0.005 µM): 0.363
- relative viability (NCI-H23; first compound 0.01581 µM): 0.288
- relative viability (NCI-H23; first compound 0.05 µM): 0.347
- relative viability (NCI-H23; first compound 0.5 µM): 0.253
- relative viability (PC-14; first compound 0.005 µM): 0.28
- relative viability (PC-14; first compound 0.01581 µM): 0.316
- relative viability (PC-14; first compound 0.05 µM): 0.262
- relative viability (PC-14; first compound 0.1581 µM): 0.376
- relative viability (PC-14; first compound 0.5 µM): 0.306
- relative viability (NCI-H596; first compound 0.005 µM): 0.621
- relative viability (NCI-H596; first compound 0.01581 µM): 0.696
- relative viability (NCI-H596; first compound 0.05 µM): 0.773
- relative viability (NCI-H596; first compound 0.5 µM): 0.706
- relative viability (NCI-H727; first compound 0.005 µM): 0.678
- relative viability (NCI-H727; first compound 0.01581 µM): 0.787
- relative viability (NCI-H727; first compound 0.05 µM): 0.823
- relative viability (NCI-H727; first compound 0.1581 µM): 0.786
- relative viability (NCI-H727; first compound 0.5 µM): 0.74
